Experimental data reported in patent US4499106A, “Lipolytic composition and method of treating obesity” (Boehringer Ingelheim KG, priority 1983, dated 1985).
Entries after “also recorded” stand apart in the source; their conditions may differ.

Columns and labels:
[1] = tested on: unesterified fatty acids in the blood; test: Unesterified fatty acids, conscious rat (maximum percentage change vs control); type: in vivo
Text: (§1) If the effects on the heart (heart rate), circulation (diastolic blood pressure, peripheral vasodilation) and bronchi, on the one hand, and the increase in the unesterified fatty acids in the blood after the administration of Me 693, on the other hand, are compared with the effects of isoprenaline and fenoterol, it is clear that the cardiovascular and bronchospasmolytic effects are much greater after administration of the comparison substances than with the Me 693, whereas the reverse is true of the lipolytic effects.
(§2) Metabolic and cardiovascular effects and bronchospasmolytic effects of Me
(§3) isoprenaline and fenoterol in animals of various types. The table gives
(§4) maximum percentage changes compared with control values.

[2] = tested on: lactate in the blood plasma; test: Metabolic effects in blood plasma of fed rats: lactate; type: in vivo, rat; details: for Lactate Δ%: blood plasma; for lactacidemia compared with Me 693: vs Me 693, in words
Text: (§9) Metabolic effects in the blood plasma of fed rats.
(§10) μmol/l (unesterified fatty acids) and mmol/l (lactate).
(§11) Averages ± S.E.M. N of the treated groups = 5-6.

[3] = tested on: unesterified fatty acids in the blood plasma; test: Metabolic effects in blood plasma of fed rats: unesterified fatty acids; type: in vivo, rat; details: for Unesterified Fatty Acids Δ%: blood plasma
Text: as §9, §10, §11

[4] = tested on: circulation (diastolic blood pressure); test: Diastolic blood pressure, anesthetized dog (maximum percentage change vs control); type: in vivo
Text: as §1, §2, §3, §4

[5] = tested on: bronchi (ACh spasm); test: Bronchospasmolysis, anesthetized guinea pig (inhibition of ACh spasm); type: in vivo; details: for bronchospasmolytic effects compared with Me 693: vs Me 693, in words
Text: as §1, §2, §3, §4

[6] = tested on: circulation (peripheral vasodilation); test: Peripheral vasodilation, anesthetized dog (maximum percentage change vs control); type: in vivo
Text: as §1, §2, §3, §4

[7] = tested on: heart (heart rate); test: Heart rate, anesthetized dog (maximum percentage change vs control); type: in vivo; details: for Heart Rate Δ%: maximum change; for cardiovascular effects compared with Me 693: vs Me 693, in words
Text: as §1, §2, §3, §4

[8] = tested on: unesterified fatty acids in the blood; test: Metabolic effects of oral administration to three conscious dogs (unesterified fatty acids, triglycerides, lactate); type: in vivo, dog; details: for Triglycerides Δ% / Unesterified Fatty Acids Δ%: maximum change
Experimental: (§5) A dose of only 0.1 mg/kg of Me 693 gives virtually a 100% increase in the unesterified fatty acids in the blood while the heart rate and the diastolic blood pressure are unaffected.
(§6) Metabolic and cardiovascular effects of Me 693 administered
(§7) orally to three conscious dogs. The table gives the maximum
(§8) percentage changes compared with the control values.

[9] = tested on: heart rate and diastolic blood pressure; test: Cardiovascular effects of oral administration to three conscious dogs (heart rate, diastolic blood pressure); type: in vivo, dog; details: for Diastolic Blood Pressure Δ% / Heart Rate Δ%: maximum change
Experimental: as §5, §6, §7, §8

[10] = tested on: metabolism (development and release of heat); test: Calorimetric effects after intravenous administration to rabbits; type: in vivo, rabbit; details: 0.5 mg/kg intravenously
[11] = tested on: lipolysis and glycogenolysis; test: Summary of animal experiments: lipolytic and glycogenolytic (lactate) activity; type: in vivo; details: in words
Text: To summarize, the animal experiments with Me 693 have given the following results: […]

What does the source list for `CC(Cc1ccc(O)cc1)NCC(O)c1cc(O)cc(O)c1` (stereo not shown) [Fenoterol, fenoterol]?
Unesterified Fatty Acids Δ% ([1]; 0.1 mg/kg s.c.): +18%; Unesterified Fatty Acids Δ% ([1]; 1.0 mg/kg s.c.): +30%; Lactate Δ% ([2]; 0.1 mg/kg s.c.): +33%; Lactate Δ% ([2]; 1.0 mg/kg s.c.): +109%; lactacidemia compared with Me 693 [2]: significantly greater; Unesterified Fatty Acids Δ% ([3]; 0.1 mg/kg s.c.): +18%; Unesterified Fatty Acids Δ% ([3]; 1.0 mg/kg s.c.): +30%; Diastolic Blood Pressure Δ% ([4]; 0.1 μg/kg i.v.): -13%; Diastolic Blood Pressure Δ% ([4]; 1 μg/kg i.v.): -33%; Diastolic Blood Pressure Δ% ([4]; 10 μg/kg i.v.): -54%; Bronchospasmolysis, % Inhibition of ACh spasm ([5]; 10 μg/kg i.v.): 67-100%; bronchospasmolytic effects compared with Me 693 [5]: much greater; Peripheral Vasodilation Δ% ([6]; 1 μg/kg i.a.): -20%; Peripheral Vasodilation Δ% ([6]; 3 μg/kg i.a.): -28%; Heart Rate Δ% ([7]; 0.1 μg/kg i.v.): +3%; Heart Rate Δ% ([7]; 1 μg/kg i.v.): +27%; Heart Rate Δ% ([7]; 10 μg/kg i.v.): +50%; cardiovascular effects compared with Me 693 [7]: much greater

For `CC(C)NCC(O)c1ccc(O)c(O)c1` (stereo not shown) [Isoprenaline, isoprenaline], which “Unesterified Fatty Acids Δ%” value ([1]; 0.1 mg/kg s.c.) is on record?
The value was “+15%”.

And the “Unesterified Fatty Acids Δ%” value ([1]; 1.0 mg/kg s.c.)?
The value was “+27%”.

What about the “Lactate Δ%” value ([2]; 0.1 mg/kg s.c.) of the same compound?
Its value is “+112%”.

And the “Lactate Δ%” value ([2]; 1.0 mg/kg s.c.)?
The value was “+148%”.

What about the “lactacidemia compared with Me 693” value [2] of the same compound?
Its value is “significantly greater”.

And the “Unesterified Fatty Acids Δ%” value ([3]; 0.1 mg/kg s.c.)?
The value was “+15%”.

What about the “Unesterified Fatty Acids Δ%” value ([3]; 1.0 mg/kg s.c.) of the same compound?
The value was “+27%”.

And the “Diastolic Blood Pressure Δ%” value ([4]; 0.1 μg/kg i.v.)?
The value was -40%.

And the “Diastolic Blood Pressure Δ%” value ([4]; 1 μg/kg i.v.)?
Its value is -62%.

And the “Diastolic Blood Pressure Δ%” value ([4]; 10 μg/kg i.v.)?
The value was -71%.

What about the “Bronchospasmolysis, % Inhibition of ACh spasm” value ([5]; 10 μg/kg i.v.) of the same compound?
Its value is 76-94%.

What about the “bronchospasmolytic effects compared with Me 693” value [5] of the same compound?
Its value is “much greater”.

And the “Peripheral Vasodilation Δ%” value ([6]; 0.001 μg/kg i.a. (so in the source))?
The value was -28%.

What about the “Peripheral Vasodilation Δ%” value ([6]; 0.003 μg/kg i.a.) of the same compound?
The value was -24%.

What about the “Peripheral Vasodilation Δ%” value ([6]; 0.03 μg/kg i.a.) of the same compound?
Its value is -33%.

And the “Heart Rate Δ%” value ([7]; 0.1 μg/kg i.v.)?
Its value is “+18%”.

And the “Heart Rate Δ%” value ([7]; 1 μg/kg i.v.)?
The value was “+37%”.

And the “Heart Rate Δ%” value ([7]; 10 μg/kg i.v.)?
Its value is “+56%”.

What about the “cardiovascular effects compared with Me 693” value [7] of the same compound?
The value was “much greater”.

`CC(COc1ccccc1)NCC(O)c1ccc(O)c(NS(=O)(=O)N(C)C)c1` (stereo not shown) [Me 693, 1-(4-hydroxy-3-dimethylamino-sulfonamidophenyl)-1-hydroxy-2-(1-phenoxy-isopropylamino)ethane] was tested. Which “Unesterified Fatty Acids Δ%” value ([1]; 0.1 mg/kg s.c.) did it give?
The value was “+34%”.

And the “Unesterified Fatty Acids Δ%” value ([1]; 1.0 mg/kg s.c.)?
Its value is “+190%”.

What about the “Triglycerides Δ%” value ([8]; 0.1 mg/kg oral) of the same compound?
Its value is “+18%”.

What about the “Triglycerides Δ%” value ([8]; 0.3 mg/kg oral) of the same compound?
Its value is “+10%”.

And the “Unesterified Fatty Acids Δ%” value ([8]; 0.3 mg/kg oral)?
The value was “+95%”.

And the “Triglycerides Δ%” value ([8]; 1.0 mg/kg oral)?
Its value is “+37%”.

What about the “Unesterified Fatty Acids Δ%” value ([8]; 1.0 mg/kg oral) of the same compound?
The value was “+112%”.

What about the “unesterified fatty acids (in words)” value ([8]; 0.3 and 1 mg/kg oral) of the same compound?
The value was “increased still further to a high level”.

What about the “Lactate Δ%” value ([2]; 0.1 mg/kg s.c.) of the same compound?
Its value is 0%.

And the “Lactate Δ%” value ([2]; 1.0 mg/kg s.c.)?
The value was “+34%”.

What about the “Unesterified Fatty Acids Δ%” value ([3]; 0.1 mg/kg s.c.) of the same compound?
Its value is “+34%”.

What about the “Unesterified Fatty Acids Δ%” value ([3]; 1 mg/kg oral) of the same compound?
The value was “+63%”.

What about the “Unesterified Fatty Acids Δ%” value ([3]; 1.0 mg/kg s.c.) of the same compound?
Its value is “+190%”.

What about the “increase in unesterified fatty acids in the blood vs comparison substances” value ([3]; identical dosage, vs isoprenaline and fenoterol, in words) of the same compound?
The value was “much higher increase”.

What about the “Diastolic Blood Pressure Δ%” value ([4]; 10 μg/kg i.v.) of the same compound?
The value was -24%.

And the “Diastolic Blood Pressure Δ%” value ([4]; 20 μg/kg i.v.)?
The value was -23%.

What about the “Bronchospasmolysis, % Inhibition of ACh spasm” value ([5]; 100 μg/kg i.v.) of the same compound?
The value was 0-2%.

What about the “heart rate and diastolic blood pressure (in words)” value ([9]; 0.1 mg/kg oral) of the same compound?
The value was “unaffected”.

And the “Diastolic Blood Pressure Δ%” value ([9]; 0.1 mg/kg oral)?
The value was 0%.

And the “Heart Rate Δ%” value ([9]; 0.1 mg/kg oral)?
Its value is 0%.

And the “Diastolic Blood Pressure Δ%” value ([9]; 0.3 mg/kg oral)?
Its value is -15%.

And the “Heart Rate Δ%” value ([9]; 0.3 mg/kg oral)?
The value was “+36%”.

What about the “Diastolic Blood Pressure Δ%” value ([9]; 1.0 mg/kg oral) of the same compound?
Its value is -26%.

And the “Heart Rate Δ%” value ([9]; 1.0 mg/kg oral)?
The value was “+95%”.

What about the “blood pressure (in words)” value ([9]; 0.3 and 1 mg/kg oral) of the same compound?
Its value is “reductions in blood pressure”.

And the “heart rate (in words)” value ([9]; 0.3 and 1 mg/kg oral)?
The value was “dose-dependent increases in heart rate”.

What about the core temperatures [10] of the same compound?
Its core temperatures is “higher core temperatures”.

What about the “development and release of heat” value [10] of the same compound?
Its value is “increased significantly”.

And the “heart rate and ear temperature” value [10]?
The value was “slight increase in heart rate and ear temperature”.

And the oxygen consumption [10]?
The oxygen consumption was “increased oxygen consumption”.

What about the respiratory quotient [10] of the same compound?
The respiratory quotient was “reduction in the respiratory quotient”.

What about the “Peripheral Vasodilation Δ%” value ([6]; 10 μg/kg i.a.) of the same compound?
Its value is -14%.

And the “Peripheral Vasodilation Δ%” value ([6]; 30 μg/kg i.a.)?
Its value is -15%.

And the “differentiation between lipolytic and glycogenolytic activities” value ([11]; animal experiments)?
Its value is “Extreme differentiation between the lipolytic and glycogenolytic activities”.

What about the glycogenolytic effect ([11]; animal experiments) of the same compound?
Its glycogenolytic effect is “virtually negligible glycogenolytic activity; also recorded: does not have the glycogenolytic effect”.

What about the lipolytic effect ([11]; animal experiments) of the same compound?
The lipolytic effect was “Strong lipolytic activity; also recorded: particularly long-lasting selective lipolytic effect”.

What about the blood lactate [11] of the same compound?
Its blood lactate is “no changes are observed in blood lactate”.

And the “Heart Rate Δ%” value ([7]; 10 μg/kg i.v.)?
Its value is “+8%”.

What about the “Heart Rate Δ%” value ([7]; 20 μg/kg i.v.) of the same compound?
The value was “+5%”.
